The target of test [1] is GST-Syk Full Protein (human) (Homo sapiens, UniProt P43405). Nature of the test: Syk kinase inhibition test (HTRF method). The following applies: Tables 1-x, compounds A; read-out: sykHTRF ave IC50. It is filed as biochemical. Summed up: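 HTRF read-out: after EDTA termination and 1 h with XL665-streptavidin and Eu-anti-phosphotyrosine, the 665/620 nm ratio was measured. The reaction ran 30 min at 20–25 °C with final 6.4 nM human GST-Syk, 250 nM biotinylated peptide, 100 μM ATP, pH 7.0 HEPES buffer, 2% DMSO.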
(In TR-FRET formats the signal depends on donor and acceptor labels being close together.)

Test [2] deals with cultured human mast cells. The test can be described thus: Degranulation inhibition test using cultured human mast cells (IgE cross-linking, β-Hexosaminidase release). It is filed as cell-based. The following applies: Mast cell; Tables 1-x, compounds A; cultured human mast cells; read-out: human degranulation ave. IC50. A digest of the protocol:
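Degranulation was triggered by anti-hIgE (10 μg/mL final, 30 min, 37 °C) after a 10-min compound pretreatment (DMSO 0.1%) of cord-blood CD34+-derived mast cells primed 5 days with IL-4 and IgE. β-Hexosaminidase in supernatant was measured with p-nitrophenyl-GlcNAc substrate (A405), expressed against water-lysed total; IC50 (M).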

Where a name gives a salt, the structure may show the parent alone.

For `COc1ccnc(Nc2cccc(-c3cnc(N4CC[C@@H](O)C4)s3)n2)c1` [Compound A-538, (R)-1-{5-[6-(4-methoxypyridin-2-ylamino)pyridin-2-yl]thiazol-2-yl}pyrrolidin-3-ol], the IC50 is below 100 nM in test [1] and 100 to 1000 nM in test [2].

As to `O[C@@H]1CCN(c2ncc(-c3cccc(Nc4cc(Cl)ccn4)n3)s2)C1` [Compound A-539, (R)-1-{5-[6-(4-chloropyridin-2-ylamino)pyridin-2-yl]thiazol-2-yl}pyrrolidin-3-ol], the IC50 in test [1] and in test [2] was below 100 nM each time.

As to `Cc1ccnc(Nc2cccc(-c3cnc(N4CCC(C)(C(=O)O)CC4)s3)n2)c1` [Compound A-540, 4-methyl-1-{5-[6-(4-methylpyridin-2-ylamino)pyridin-2-yl]thiazol-2-yl}piperidine-4-carboxylic acid], the half-inhibitory concentration (IC50) in test [1] is below 100 nM; in test [2] it was 100 to 1000 nM.

Turning to `COc1ccnc(Nc2cccc(-c3cnc(N4CCC[C@H]4C(N)=O)s3)n2)c1` [Compound A-541, (S)-1-{5-[6-(4-methoxypyridin-2-ylamino)pyridin-2-yl]thiazol-2-yl}pyrrolidine-2-carboxamide], the IC50 in test [1] is below 100 nM; in test [2] it was 100 to 1000 nM.

Take `NC(=O)[C@@H]1CCCN1c1ncc(-c2cccc(Nc3cc(Cl)ccn3)n2)s1` [Compound A-542, (S)-1-{5-[6-(4-chloropyridin-2-ylamino)pyridin-2-yl]thiazol-2-yl}pyrrolidine-2-carboxamide]: the IC50 in test [1] and in test [2] was below 100 nM in each case.

Consider `CC(=O)c1ccnc(Nc2cccc(-c3cnc(N4CCC(C(N)=O)CC4)s3)n2)c1` [Compound A-543, 1-{5-[6-(4-acetylpyridin-2-ylamino)pyridin-2-yl]thiazol-2-yl}piperidine-4-carboxamide], for which the IC50 was below 100 nM in test [1] and 100 to 1000 nM in test [2].

With `Cc1ccnc(Nc2cccc(-c3cnc(N(CCO)CCO)s3)n2)c1` [Compound A-544, 2-(N-(2-hydroxyethyl)-N-{5-[6-(4-methylpyridin-2-ylamino)pyridin-2-yl]thiazol-2-yl}amino)ethanol], the half-maximal inhibitory concentration (IC50) in test [1] and in test [2] was below 100 nM throughout.

For `OCCN(CCO)c1ncc(-c2cccc(Nc3cc(Cl)ccn3)n2)s1` [Compound A-545, 2-[N-{5-[6-(4-chloropyridin-2-ylamino)pyridin-2-yl]thiazol-2-yl}-N-(2-hydroxyethyl)amino]ethanol], the IC50 in test [1] and in test [2] was below 100 nM throughout.

In the case of `O=C(O)[C@@H]1CCCN(c2ncc(-c3cccc(Nc4cc(Cl)ccn4)n3)s2)C1` [Compound A-546, (R)-1-{5-[6-(4-chloropyridin-2-ylamino)pyridin-2-yl]thiazol-2-yl}piperidine-3-carboxylic acid], the IC50 was below 100 nM in test [1] and 100 to 1000 nM in test [2].

For the compound `CC(O)c1ccnc(Nc2cccc(-c3cnc(N4CCC(C(N)=O)CC4)s3)n2)c1` (centres unmarked) [Compound A-547, 1-(5-{6-[4-(1-hydroxyethyl)pyridin-2-ylamino]pyridin-2-yl}thiazol-2-yl)piperidine-4-carboxamide], the half-maximal inhibitory concentration (IC50) in test [1] is below 100 nM; in test [2], above 1000 nM.

For `CC1(c2ccnc(Nc3cccc(-c4cnc(N5CC[C@@H](O)C5)s4)n3)c2)OCCO1` [Compound A-548, (R)-1-(5-{6-[4-(2-methyl-[1,3]dioxolan-2-yl)pyridin-2-ylamino]pyridin-2-yl}thiazol-2-yl)pyrrolidin-3-ol], the half-maximal inhibitory concentration (IC50) in test [1] is below 100 nM; in test [2] it was 100 to 1000 nM.

For `CC(=O)c1ccnc(Nc2cccc(-c3cnc(N4CC[C@@H](O)C4)s3)n2)c1` [Compound A-549, 1-(2-{6-[2-((R)-3-hydroxypyrrolidin-1-yl)thiazol-5-yl]pyridin-2-ylamino}pyridin-4-yl)ethanone], the IC50 is below 100 nM in test [1] and 100 to 1000 nM in test [2].

As to `Cc1ccnc(Nc2cccc(-c3cnc(N4CCN(C(=O)CCC(=O)O)CC4)s3)n2)c1` [Compound A-551, 4-(4-{5-[6-(4-methylpyridin-2-ylamino)pyridin-2-yl]thiazol-2-yl}piperazin-1-yl)-4-oxobutyric acid], the IC50 in test [1] was below 100 nM; in test [2], above 1000 nM.

`O=C(NO)[C@@H]1CCCN(c2ncc(-c3cccc(Nc4cc(Cl)ccn4)n3)s2)C1` [Compound A-552, N-hydroxy-(R)-1-{5-[6-(4-chloropyridin-2-ylamino)pyridin-2-yl]thiazol-2-yl}piperidine-3-carboxamide]: the values for the IC50 in test [1] and in test [2] were below 100 nM and 100 to 1000 nM, respectively.

In the case of `Cc1ccnc(Nc2cccc(-c3cnc(N(C)C4CCN(C(=O)CCC(=O)O)CC4)s3)n2)c1` [Compound A-553, 4-[4-(N-methyl-N-{5-[6-(4-methylpyridin-2-ylamino)pyridin-2-yl]thiazol-2-yl}amino)piperidin-1-yl]-4-oxobutyric acid], the IC50 was below 100 nM in test [1] and above 1000 nM in test [2].

For `CC(O)c1ccnc(Nc2cccc(-c3cnc(N4CC[C@@H](O)C4)s3)n2)c1` (stereo partly drawn) [Compound A-554, (R)-1-(5-{6-[4-(1-hydroxyethyl)pyridin-2-ylamino]pyridin-2-yl}thiazol-2-yl)pyrrolidin-3-ol], the IC50 was below 100 nM in test [1] and 100 to 1000 nM in test [2].

On to `Cc1ccnc(Nc2cccc(-c3cnc(N(C)CC(N)=O)s3)n2)c1` [Compound A-556, 2-(N-methyl-N-{5-[6-(4-methylpyridin-2-ylamino)pyridin-2-yl]thiazol-2-yl}amino)acetamide], for which the IC50 in test [1] and in test [2] was below 100 nM throughout.

As to `CC1(c2ccnc(Nc3cccc(-c4cnc(N5CCC[C@@H](C(=O)O)C5)s4)n3)c2)OCCO1` [Compound A-558, (R)-1-{5-(6-[4-(2-methyl-[1,3]dioxolan-2-yl)pyridin-2-ylamino]pyridin-2-yl}thiazol-2-yl)piperidine-3-carboxylic acid], the half-maximal inhibitory concentration (IC50) in test [1] is below 100 nM; in test [2] it was above 1000 nM.

As for `CC(=O)c1ccnc(Nc2cccc(-c3cnc(N4CCC[C@@H](C(=O)O)C4)s3)n2)c1` [Compound A-560, (R)-1-{5-[6-(4-acetylpyridin-2-ylamino)pyridin-2-yl]thiazol-2-yl}piperidine-3-carboxylic acid], the IC50 in test [1] was below 100 nM; in test [2], 100 to 1000 nM.

Turning to `CC(=O)c1ccnc(Nc2cccc(-c3cnc(N4CCC[C@H]4C(N)=O)s3)n2)c1` [Compound A-561, (S)-1-{5-[6-(4-acetylpyridin-2-ylamino)pyridin-2-yl]thiazol-2-yl}pyrrolidine-2-carboxamide], the IC50 in test [1] is below 100 nM; in test [2], 100 to 1000 nM.

`OCC1CCN(c2ncc(-c3cccc(Nc4cc(Cl)ccn4)n3)s2)C1` (centres unmarked) [Compound A-562, (1-{5-[6-(4-chloropyridin-2-ylamino)pyridin-2-yl]thiazol-2-yl}pyrrolidin-3-yl)methanol]: the IC50 in test [1] and in test [2] was below 100 nM each time.

`CC(=O)N1CC[C@@H](N(C)c2ncc(-c3cccc(Nc4cc(C)ccn4)n3)s2)C1` [Compound A-563, 1-[(R)-3-(N-methyl-N-{5-[6-(4-methylpyridin-2-ylamino)pyridin-2-yl]thiazol-2-yl}amino)pyrrolidin-1-yl]ethanone]: the half-inhibitory concentration (IC50) is below 100 nM in test [1] and 100 to 1000 nM in test [2].

With `CC(=O)c1ccnc(Nc2cccc(-c3cnc(N4CCC[C@H]4C(=O)O)s3)n2)c1` [Compound A-564, (S)-1-{5-[6-(4-acetylpyridin-2-ylamino)pyridin-2-yl]thiazol-2-yl}pyrrolidine-2-carboxylic acid dihydrochloride], the concentration for half-maximal inhibition (IC50) in test [1] was below 100 nM; in test [2] it was above 1000 nM.

As to `CC1(c2ccnc(Nc3cccc(-c4cnc(N5CCC[C@@H](C(N)=O)C5)s4)n3)c2)OCCO1` [Compound A-565, (R)-1-(5-{6-[4-(2-methyl-[1,3]dioxolan-2-yl)pyridin-2-ylamino]pyridin-2-yl}thiazol-2-yl)piperidine-3-carboxamide], the IC50 was below 100 nM in test [1] and 100 to 1000 nM in test [2].

Regarding `Cc1ccnc(Nc2cccc(-c3cnc(N4CCC[C@@H](CC(=O)O)C4)s3)n2)c1` [Compound A-567, ((S)-1-{5-[6-(4-methylpyridin-2-ylamino)pyridin-2-yl]thiazol-2-yl}piperidin-3-yl)acetic acid], the concentration for half-maximal inhibition (IC50) is below 100 nM in test [1] and 100 to 1000 nM in test [2].

On to `Cc1ccnc(Nc2cccc(-c3cnc(N(C)CC(=O)N[C@H](C(=O)O)C(C)C)s3)n2)c1` [Compound A-568, (S)-3-methyl-2-[2-(N-methyl-N-{5-[6-(4-methylpyridin-2-ylamino)pyridin-2-yl]thiazol-2-yl}amino)acetylamino]butyric acid dihydrochloride], for which the figures for the concentration for half-maximal inhibition (IC50) in test [1] and in test [2] were below 100 nM and above 1000 nM, respectively.

Turning to `Cc1ccnc(Nc2cccc(-c3cnc(N(C)CC(=O)NCCC(=O)O)s3)n2)c1` [Compound A-570, 3-[2-(N-methyl-N-{5-[6-(4-methylpyridin-2-ylamino)pyridin-2-yl]thiazol-2-yl}amino)acetylamino]propionic acid dihydrochloride], the figures for the 50% inhibitory concentration (IC50) in test [1] and in test [2] were below 100 nM and above 1000 nM, respectively.

For the compound `Cc1ccnc(Nc2cccc(-c3cnc(N(C)CC(=O)NCC(=O)O)s3)n2)c1` [Compound A-571, [2-(N-methyl-N-{5-[6-(4-methylpyridin-2-ylamino)pyridin-2-yl]thiazol-2-yl}amino)acetylamino]acetic acid dihydrochloride], the results for the IC50 in test [1] and in test [2] were below 100 nM and above 1000 nM, respectively.

The IC50 is the midpoint of a concentration-inhibition curve.

The values are drawn from patent US7803801B2, “Aminopyridine compounds having Syk inhibitory activity” (Japan Tobacco, Inc., priority 2005, dated 2010).
